# Source: US20240300932A1, “N-PHENYLIMINE DERIVATIVE AND PREPARATION METHOD AND USE THEREOF” (Guizhou University, priority 2023, published 2024)
# How the values were obtained:
# [1] = system: Portulaca oleracea; test: Post-emergence herbicidal activity test (stem and leaf spray, pot culture); assay type: in vivo; conditions: 3 weeks after spraying
# Outline: (§1)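 Pot-grown weeds in loam (pH 7, 1.63% organic matter) were spray-treated on stems and leaves at the 2- to 3-leaf stage with compound in acetone/Tween 80 plus 1.5 liters/ha methyl oleate at 10, 5 or 2.5 g/mu. Fresh-weight growth control was scored 3 weeks later as grades 0–5.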
# [2] = system: Echinochloa crusgalli; test: as above; assay type: in vivo; conditions: 3 weeks after spraying
# Outline: as §1
# [3] = system: Abutilon theophrasti; test: as above; assay type: in vivo; conditions: 3 weeks after spraying
# Outline: as §1
# [4] = system: Amaranthus retroflexus; test: as above; assay type: in vivo; conditions: 3 weeks after spraying
# Outline: as §1
# [5] = system: Setaria viridis; test: as above; assay type: in vivo; conditions: 3 weeks after spraying
# Outline: as §1
# [6] = system: Trifoliumre pensL.; test: as above; assay type: in vivo; conditions: 3 weeks after spraying
# Outline: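 Pot-grown weeds in loam (pH 7), greenhouse at 20–30 °C, sprayed once post-emergence at the 2–3-leaf stage. Compound in acetone with Tween 80 plus methyl oleate oil (1.5 L/ha), applied at 10, 5 and 2.5 g/mu by spray tower. Effect scored 3 weeks after spraying, averaged over three repeats.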
SMILES,melting point,"Post-emergence herbicidal activity, P. oleracea (grade) ([1]; dosage 2.5 g/mu)","Post-emergence herbicidal activity, P. oleracea (grade) ([1]; dosage 5 g/mu)","Post-emergence herbicidal activity, P. oleracea (grade) ([1]; dosage 10 g/mu)","Post-emergence herbicidal activity, E. crusgalli (grade) ([2]; dosage 2.5 g/mu)","Post-emergence herbicidal activity, E. crusgalli (grade) ([2]; dosage 5 g/mu)","Post-emergence herbicidal activity, E. crusgalli (grade) ([2]; dosage 10 g/mu)","Post-emergence herbicidal activity, A. theophrasti (grade) ([3]; dosage 2.5 g/mu)","Post-emergence herbicidal activity, A. theophrasti (grade) ([3]; dosage 5 g/mu)","Post-emergence herbicidal activity, A. theophrasti (grade) ([3]; dosage 10 g/mu)","Post-emergence herbicidal activity, A. retroflexus (grade) ([4]; dosage 2.5 g/mu)","Post-emergence herbicidal activity, A. retroflexus (grade) ([4]; dosage 5 g/mu)","Post-emergence herbicidal activity, A. retroflexus (grade) ([4]; dosage 10 g/mu)","Post-emergence herbicidal activity, S. viridis (grade) ([5]; dosage 2.5 g/mu)","Post-emergence herbicidal activity, S. viridis (grade) ([5]; dosage 5 g/mu)","Post-emergence herbicidal activity, S. viridis (grade) ([5]; dosage 10 g/mu)","Post-emergence herbicidal activity, Trifoliumre pensL. (grade) ([6]; dosage 2.5 g/mu)","Post-emergence herbicidal activity, Trifoliumre pensL. (grade) ([6]; dosage 5 g/mu)","Post-emergence herbicidal activity, Trifoliumre pensL. (grade) ([6]; dosage 10 g/mu)"
"Cc1ccc(Br)cc1-c1noc(COc2cc(N3C(=O)C4=C(CCCC4)C3=O)c(F)cc2Cl)n1 [Compound A1, 2-(5-((3-(5-bromo-2-tolyl)-1,2,4-oxadiazole-5-yl)methoxy)-4-chloro-2-fluorophenyl)-4,5,6,7-tetrahydro-1H-isoindole-1,3(2H)-dione]",101 to 105 °C,4 (Grade 4: the growth control rate is greater than or equal to 60% and less than 85%),5 (Grade 5: the growth control rate is greater than or equal to 85%),5 (Grade 5: the growth control rate is greater than or equal to 85%),1 (Grade 1: the growth control rate is greater than or equal to 5% and less than 20%),2 (Grade 2: the growth control rate is greater than or equal to 20% and less than 40%),3 (Grade 3: the growth control rate is greater than or equal to 40% and less than 60%),5 (Grade 5: the growth control rate is greater than or equal to 85%),5 (Grade 5: the growth control rate is greater than or equal to 85%),5 (Grade 5: the growth control rate is greater than or equal to 85%),5 (Grade 5: the growth control rate is greater than or equal to 85%),5 (Grade 5: the growth control rate is greater than or equal to 85%),5 (Grade 5: the growth control rate is greater than or equal to 85%),2 (Grade 2: the growth control rate is greater than or equal to 20% and less than 40%),3 (Grade 3: the growth control rate is greater than or equal to 40% and less than 60%),4 (Grade 4: the growth control rate is greater than or equal to 60% and less than 85%),4 (Grade 4: the growth control rate is greater than or equal to 60% and less than 85%),5 (Grade 5: the growth control rate is greater than or equal to 85%),5 (Grade 5: the growth control rate is greater than or equal to 85%)
"Cc1ccccc1-c1noc(COc2cc(N3C(=O)C4=C(CCCC4)C3=O)c(F)cc2Cl)n1 [Compound A2, 2-(4-chloro-2-fluoro-5-((3-(2-tolyl)-1,2,4-oxadiazole-5-yl)methoxy)phenyl)-4,5,6,7-tetrahydro-1H-isoindole-1,3(2H)-dione]",161 to 167 °C,4 (Grade 4: the growth control rate is greater than or equal to 60% and less than 85%),5 (Grade 5: the growth control rate is greater than or equal to 85%),5 (Grade 5: the growth control rate is greater than or equal to 85%),1 (Grade 1: the growth control rate is greater than or equal to 5% and less than 20%),2 (Grade 2: the growth control rate is greater than or equal to 20% and less than 40%),3 (Grade 3: the growth control rate is greater than or equal to 40% and less than 60%),5 (Grade 5: the growth control rate is greater than or equal to 85%),5 (Grade 5: the growth control rate is greater than or equal to 85%),5 (Grade 5: the growth control rate is greater than or equal to 85%),5 (Grade 5: the growth control rate is greater than or equal to 85%),5 (Grade 5: the growth control rate is greater than or equal to 85%),5 (Grade 5: the growth control rate is greater than or equal to 85%),2 (Grade 2: the growth control rate is greater than or equal to 20% and less than 40%),3 (Grade 3: the growth control rate is greater than or equal to 40% and less than 60%),4 (Grade 4: the growth control rate is greater than or equal to 60% and less than 85%),4 (Grade 4: the growth control rate is greater than or equal to 60% and less than 85%),5 (Grade 5: the growth control rate is greater than or equal to 85%),5 (Grade 5: the growth control rate is greater than or equal to 85%)
"O=C1C2=C(CCCC2)C(=O)N1c1cc(OCc2nnc(-c3cccc(Cl)c3)o2)c(Cl)cc1F [Compound B2, 2-(4-chloro-5-((5-(3-chlorophenyl)-1,3,4-oxadiazole-2-yl)methoxy)-2-fluorophenyl)-4,5,6,7-tetrahydro-1H-isoindole-1,3(2H)-dione]",158 to 162 °C,5 (Grade 5: the growth control rate is greater than or equal to 85%),5 (Grade 5: the growth control rate is greater than or equal to 85%),5 (Grade 5: the growth control rate is greater than or equal to 85%),1 (Grade 1: the growth control rate is greater than or equal to 5% and less than 20%),2 (Grade 2: the growth control rate is greater than or equal to 20% and less than 40%),3 (Grade 3: the growth control rate is greater than or equal to 40% and less than 60%),5 (Grade 5: the growth control rate is greater than or equal to 85%),5 (Grade 5: the growth control rate is greater than or equal to 85%),5 (Grade 5: the growth control rate is greater than or equal to 85%),5 (Grade 5: the growth control rate is greater than or equal to 85%),5 (Grade 5: the growth control rate is greater than or equal to 85%),5 (Grade 5: the growth control rate is greater than or equal to 85%),2 (Grade 2: the growth control rate is greater than or equal to 20% and less than 40%),3 (Grade 3: the growth control rate is greater than or equal to 40% and less than 60%),4 (Grade 4: the growth control rate is greater than or equal to 60% and less than 85%),5 (Grade 5: the growth control rate is greater than or equal to 85%),5 (Grade 5: the growth control rate is greater than or equal to 85%),5 (Grade 5: the growth control rate is greater than or equal to 85%)
"CCOC(=O)CC(=O)Nc1cc(N2C(=O)C3=C(CCCC3)C2=O)c(F)cc1Cl [Compound D6, 3-((2-chloro-5-(1,3-dioxo-1,3,4,5,6,7-hexahydro-2H-isoindole-2-yl)-4-fluorophenyl)amino)-ethyl 3-oxopropanoate]",,,,5 (Grade 5: the growth control rate is greater than or equal to 85%),,,3 (Grade 3: the growth control rate is greater than or equal to 40% and less than 60%),,,5 (Grade 5: the growth control rate is greater than or equal to 85%),,,5 (Grade 5: the growth control rate is greater than or equal to 85%),,,3 (Grade 3: the growth control rate is greater than or equal to 40% and less than 60%),,,5 (Grade 5: the growth control rate is greater than or equal to 85%)
"CCCCCCCCC(=O)Nc1cc(N2C(=O)C3=C(CCCC3)C2=O)c(F)cc1Cl [Compound D7, N-(2-chloro-5-(1,3-dioxo-1,3,4,5,6,7-hexahydro-2H-isoindole-2-yl)-4-fluorophenyl)nonanamide]",,,,5 (Grade 5: the growth control rate is greater than or equal to 85%),,,3 (Grade 3: the growth control rate is greater than or equal to 40% and less than 60%),,,5 (Grade 5: the growth control rate is greater than or equal to 85%),,,5 (Grade 5: the growth control rate is greater than or equal to 85%),,,4 (Grade 4: the growth control rate is greater than or equal to 60% and less than 85%),,,5 (Grade 5: the growth control rate is greater than or equal to 85%)
